Tests used:
Format in all cases: cell-based
CRKL protein [1] = experiment: Inhibition of phosphorylation of CRKL protein, Western blot, E255V cell line; conditions: 72 h, FIG. 5, FIG. 6B
Description: (§1) Phospho-CRKL monitoring has been recognized as a prognostic marker in CML patients treated with first and second generation Bcr-Abl inhibitors (Haematologica, 2008, 93, 5, 765-769). The assay was carried out using Western blot analysis according to the reference, Analytical Biochemistry, 1981, 112, 2, 195-203, with certain modifications.
(§2) Western blot analysis was performed to decipher the mechanism of action of compounds of the present invention. […] The cells were incubated in a humidified incubator for 2-4 h at 37° C. Subsequently, cells were treated with respective concentrations of the compounds. Cells were then incubated for 72 h. Following the incubation, cells were harvested, washed with ice-cold phosphate buffered saline (PBS) and lysed with cold Cell Lytic buffer (Sigma Aldrich) supplemented with complete protease inhibitor cocktail (Roche, Germany). The protein extracts were obtained after centrifugation at 14,000 rpm at 4° C. (30 min). Aliquots of the resulting extracts were analyzed for their protein content using Bradford Reagent (Sigma) as per the manufacturer's instructions. Equivalent protein samples (70 μg) were loaded on 10% Tris-glycine gels and resolved at 100 V for 2 h in a buffered solution (24.9 mM Tris base, 250 mM glycine, 0.1% SDS (sodium dodecyl sulfate)). […]

CRKL protein [2] = experiment: Inhibition of phosphorylation of CRKL protein, Western blot, M351T cell line; conditions: FIG. 6B
Description: as §1, §2

CRKL protein [3] = experiment: Inhibition of phosphorylation of CRKL protein, Western blot, Y253H cell line; conditions: FIG. 6B
Description: as §1, §2

CCCc1noc(C=Cc2ccc(O)c(O)c2)n1 [Compound of Example 3, 4-[2-(3-Propyl-[1,2,4]oxadiazol-5-yl)-vinyl]-benzene-1,2-diol]
inhibit: phosphorylation of CRKL protein (Tyr-207) (CRKL protein [1]) | phospho-CRKL (CRKL protein [2]) | phospho-CRKL (CRKL protein [3])
